Patent US20060167106A1, “Compounds acting at the centrosome” (priority 2004, published 2006)
“Also recorded” adds a separate entry of the source.

Legend:
[1] = cited from earlier work
[2] = test system: bovine microtubule-associated protein (MAP)-free tubulin; assay: Tubulin Polymerization Assay (MAP-free tubulin); assay type: biochemical
Procedure: For in vitro tubulin polymerization assays, lyophilized bovine microtubule-associated protein (MAP)-free tubulin and PEM buffer (80 mM Na-PIPES (pH 6.9), 1 mM MgCl2, 1 mM EGTA) were purchased from Cytoskeleton (Denver, Colo.). MAP-free tubulin (1.5 mg/ml) was incubated with the test compounds, 0.5 μM Compound 1, 3 μM Taxol, 0.5 μM Compound 1+3 μM Taxol or 0.5 μM Compound 1+30 nM Taxol in PEM-0.3% DMSO. Absorbance at 340 nm was measured every minute for 60 min at 37° C. using a Perkin Elmer HTS 7000 spectrophotometer.

[3] = test system: bovine brain microtubule-associated protein (MAP)-rich tubulin; assay: MAP-Rich Tubulin Polymerization Assay; assay type: biochemical; conditions: 0.5 μM Compound 1 alone or with 3 μM Taxol
Procedure: In vitro tubulin polymerization assays were repeated in the presence of microtubule-associated proteins (MAPs). Lyophilized bovine brain microtubule-associated protein (MAP)-rich tubulin and PEM buffer (80 mM Na-PIPES (pH 6.9), 1 mM MgCl2, 1 mM EGTA) were purchased from Cytoskeleton (Denver, Colo.). […] Absorbance at 340 nm was measured every minute for 60 minutes at 37° C. using a Perkin Elmer HTS 7000 spectrophotometer.

CHO cells [4] = assay: Oregon Green 488-Taxol localization in CHO cells; assay type: cell-based, Chinese hamster; conditions: 0.5 μM Compound 1
Procedure: (§1) A fluorescent compound, Oregon Green 488-Taxol (Molecular Probes/Invitrogen), was utilized to determine the distribution of Taxol in CHO cells (FIG. 33). In addition, the targeting of fluorescent Taxol to centrosomes was examined in Compound 1-treated cells (FIG. 34). Non-transfected wild-type CHO cells and HeLa cells were cultured in 2-well chambered cover-slips for 24-48 hours before treatment. Oregon Green 488-Taxol stock solution was made with DMSO. […] Oregon Green 488-Taxol fluorescence in living cells or fixed cells was imaged using a standard filter for FITC with the Nikon TE300 microscope/digital imaging system.

HeLa cells = assay: Oregon Green 488-Taxol localization in HeLa cells; assay type: cell-based; conditions: 0.5 μM Compound 1
Procedure: as §1

Aurora-A kinase = target: T1, Aurora-A kinase (Homo sapiens, UniProt O14965); assay: Aurora-A Kinase Assay (ELISA, Lats2 phosphorylation); assay type: biochemical; conditions: 50 nM to 50 μM
T1 construct: purchased MBL International (CycLex)
T1 sequence (O14965 1-403): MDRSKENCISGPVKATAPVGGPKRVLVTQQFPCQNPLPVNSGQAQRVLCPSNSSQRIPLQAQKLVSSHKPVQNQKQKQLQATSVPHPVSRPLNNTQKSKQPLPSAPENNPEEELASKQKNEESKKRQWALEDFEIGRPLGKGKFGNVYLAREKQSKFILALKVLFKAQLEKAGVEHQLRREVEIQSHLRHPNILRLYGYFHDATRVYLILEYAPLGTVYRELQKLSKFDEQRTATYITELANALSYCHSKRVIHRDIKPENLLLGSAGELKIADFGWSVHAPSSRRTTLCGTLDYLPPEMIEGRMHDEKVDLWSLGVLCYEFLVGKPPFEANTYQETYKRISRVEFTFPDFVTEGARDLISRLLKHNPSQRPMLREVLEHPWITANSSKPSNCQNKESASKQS
Procedure: In the assay, the amount of phosphorylated substrate is measured by binding to ST-3B11, an anti-phospho-Lats2 serine83 monoclonal antibody, subsequently incubating with horseradish peroxidase-conjugated anti-mouse IgG, which then catalyzes the conversion of the chromogenic substrate tetra-methylbenzidine (TMB) from a colorless solution to a blue solution. The color is then quantified by spectrophotometry, which reflects the relative amount of Aurora-A activity in the sample.
The assay was then performed according to the manufacturer's instructions using 40 Units/well of recombinant Aurora A enzyme. In the ‘enzyme control’ Aurora A enzyme and the ‘ATP minus control’, ATP was omitted from the reaction mixture. […] The color was quantified using a spectrophotometer (Perkin Elmer HTS 7000 Bio Assay Reader) at 450/535 nm wavelengths.

[5] = test system: U937 (histiocytic lymphoma); assay: Viability and cell growth of U937 cells; assay type: cell-based; conditions: for Total cells (×10^6): U937, 36 hour treatment
Procedure: The viability and cell growth of two lymphoma cell lines, CRL-2261 (non-Hodgkin's lymphoma) and U937 (histiocytic lymphoma), were assayed following treatment with Compound 1 for 36-48 hours. Viability of the cells was determined using a kit from Molecular Probes (Eugene, Oreg.) that labels live cells green (calcein AM) and dead cells red (ethidium homodimer) according to manufacturer's instructions. Fluorescence of calcein and ethidium homodimer in cells was imaged using standard filters for FITC and Texas Red, respectively, with the Nikon TE300 microscope/digital imaging system.

CHO cells [6] = assay: Cell morphology, simultaneous time-lapse imaging of CHO cells; assay type: cell-based, Chinese hamster; conditions: for cell death: cells, after a certain period of treatment
Procedure: CV-1 cells and CHO cells were previously cultured in 2-well chambered cover-slips for 48 hours and incubated in 15 mM HEPES buffer-containing Ham's F-12/DMEM medium with different compounds. The cells were imaged using phase contrast settings with the Nikon TE300 microscope/digital imaging system. The cells were imaged ‘simultaneously’ under control of MetaVue software by capturing frames for cells from different conditions at the same time period using a motorized automated XYZ stage.
To track the effect of Compound 1 on live cells, non-transfected CV-1 cells with were treated with 500 nM Compound 1 and phase contrast time-lapse images were taken every 10 seconds. […] A very low concentration of Taxol (10 nM) was used.

CV-1 cells = assay: α-tubulin immunofluorescence, microtubule network in CV-1 cells; assay type: cell-based, monkey; conditions: 0.5 μM, 5 hours
Procedure: Before treatment, cells were grown in chamber slides for 24 hours in culture media containing 90% Eagle's MEM and 10% BCS. […] Cells were then washed in PBS and fixed in ice-cold 50/50 methanol/acetone for 10 minutes. […] Sigma, St. Louis, Mo.). Subsequently, slides were washed in PBS, incubated with an AlexaFluoR488-conjugated anti-mouse antibody (Molecular Probes, Eugene, Oreg.) at 37° C. for 30 minutes.

26S proteasome = assay: Proteasome-sensor cells, flow cytometry; assay type: cell-based
Procedure: The first measurement was determined by the increase of proteasome-sensor positive cells treated with Compound 1 or Velcade, as compared to DMSO, by using a cell line expressing the proteasome-sensor protein and flow cytometry analysis.
To measure the proteasome-inhibition effect of Compound 1, GFP fluorescence in the proteasome-sensor cells treated with Compound 1 and Velcade was measured using flow cytometry. […] Cells were harvested by treating the cells with 1×PBS for 5 minutes and pipetting the cells up and done 10 times. The cells were passed through a 100 μm-diameter filter before analyzing by FACS. A standard FITC filter was used for the FACS analysis. Quantitation of the proteasome-inhibitory effect of Compound 1 was determined by an increase in the percentage of GFP-positive cells, as compared to treatment with DMSO alone.
To further characterize the proteasome-inhibitory effect of Compound 1 in live cells, proteasome-sensor cells were treated with Compound 1 and the accumulation of the GFP-based proteasome substrate was measured by flow cytometry.

Compound: CN(NC(=O)CC(=O)NN(C)C(=S)c1ccccc1)C(=S)c1ccccc1 [Compound 1]
- toxicity in vivo [1]: very low toxicity in vivo
- effect on the kinetics of tubulin polymerization ([2]; 0.5 μM): no effect on the kinetics of tubulin polymerization
- influence on the effect of Taxol on tubulin polymerization ([2]; 0.5 μM Compound 1 with 3 μM or 30 nM Taxol): did not influence the effect of either high dose (3 μM) or low dose (30 nM) of Taxol on tubulin polymerization
- influence on MAP-enriched tubulin polymerization [3]: does not influence MAP-enriched tubulin polymerization
- effect on the accumulation of Taxol (Oregon Green 488-Taxol) at centrosomes (CHO cells [4]): no effect on the accumulation of Taxol at centrosomes
- effect on the accumulation of Taxol (Oregon Green 488-Taxol) at centrosomes (HeLa cells): no effect on the accumulation of Taxol at centrosomes
- inhibition of the phosphorylation of Lats2 by Aurora-A kinase (Aurora-A kinase): did not inhibit the phosphorylation of Lats2 by Aurora-A kinase
- cell death of U937 cells ([5]; 36 hours): less affected
- Total cells (×10^6) ([5]; 500 nM): 2.13 ×10^6
- Total cells (×10^6) ([5]; 5000 nM): 2.40 ×10^6
- time of induced cell shrinkage (CHO cells [6]; CHO cells, 500 nM): 70 min
- cell death (CHO cells [6]): cause cell death after a certain period of treatment
- organization of the microtubule network (CV-1 cells): dramatic alterations in the cells' microtubule network; also recorded: loss of centrosomal enucleated microtubules, clearing up of microtubules from the cytosol, and coiling up of microtubules around the nucleus and at the cell periphery; also recorded: disruption of the microtubule network
- increase of the fluorescent positive cells (proteasome-sensor positive) compared to DMSO (26S proteasome; 500 nM): 14.53%
- increase of fluorescence (non-gated flow cytometry) (26S proteasome; 500 nM, 20 hours): significant increase of fluorescence
- increase in fluorescent cell population, lower than that of cells treated with Velcade (26S proteasome; Compound 1 500 nM versus Velcade 100 nM, 20 hours): about 4 fold

Compound: CC(C)C[C@H](NC(=O)[C@H](Cc1ccccc1)NC(=O)c1cnccn1)B(O)O [Velcade]
- toxicity in vivo [1]: greater toxicity
- effect on cell morphology (CHO cells [6]; CHO cells, 100 nM): did not dramatically affect cell morphology until cell death
- time of cell death (CHO cells [6]; CHO cells, 100 nM): 210 min
- cell death (CHO cells [6]): cause cell death after a certain period of treatment
- increase of the fluorescent positive cells (proteasome-sensor positive) compared to DMSO (26S proteasome; 100 nM): 58.26%
- increase of fluorescence (non-gated flow cytometry) (26S proteasome; 100 nM, 20 hours): significant increase of fluorescence
